For orientation: mortality means the share of the test organisms that died. Lower therefore signals a weak lethal effect.

Read-outs that look alike come from different tables or passages of the source.

One data set deals with phenylbenzoquinone (PBQ). The experiment in a line: Analgesic activity using phenylbenzoquinone (PBQ) as noxious agent, Table 2. As to conditions: for inhibition in vivo at 100 mg/kg / inhibition in vivo at 200 mg/kg / inhibition in vivo at 50 mg/kg: Mus musculus; for inhibition in vivo at 100 mg/kg: read-out: % of analgesic activity, 100 mg/kg, male Swiss mouse, PBQ; for inhibition in vivo at 200 mg/kg: read-out: % of analgesic activity, 200 mg/kg, male Swiss mouse, PBQ. Format: in vivo, male Swiss mouse. Here is the method:
The analgesic activity was determined with the male Swiss mouse using phenylbenzoquinone (PBQ) (a variation of the method of Siegmund et al, Proc. Soc. Exp. Med., […], 95, 729-31) as the noxious agent. Twenty-eightminutes after having administered the test products in a suspension in a 6% gum base, the PBQ solution was injected. The mice were then observed ca. 5 mn. for the next five minutes.
% of analgesic activity as a function of
the dose expressed in mg/kg

Data set [1] concerns trembling induced by oxotremorine. The experiment in a line: Antagonism of trembling induced by oxotremorine, Table 7. It counts as in vivo. Conditions: read-out: % of inhibition of trembling induced by oxotremorine. An excerpt:
(§1) The psychotropic profile of the present invention products has been characterized with the animals in numerous tests some of whose results are shown hereinafter. The products of the invention were always administered orally in 6% gum base.
(§2) Certain tests made it possible to show antidepressive activities. These are tests of antagonism to the effects of reserpine, oxotremorine (according to Everett G. M. et al, Science, 1956, 124, 79 and Levy J. et al, Therapie 1965, 20, 265) and to despair (according to Porsolt P. D. et al, Eur. J. Pharmacol., 1978, 47, 379-91).
% of inhibition of trembling induced by
oxotremorine as a function of the dose
(§3) administered expressed in mg/kg

A further data set has as its system Swiss mice. The experiment in a line: Oral toxicity (mortality) in the mouse, Table 1. It counts as in vivo. Conditions: 14 days, 20160 min. Here is the method: (§4) The mortality percentages caused by the products of the present invention administered orally to Swiss mice are shown in Table 1. The animals, free of specific pathological organism were housed in an air conditioned room from 24 to 48 hours before the start of the experiments. They were divided up into lots of 5 males and 5 females. With the animals unfed for 24 hours, the substances were administered intragastrically in a base of 6% gum arabic in a volume equal to 0.1 ml for 10 g of animal weight. The mortality was recorded at 14 days.
(§5) % of mortality as a function of the dose

Data set [2] is described as follows: Oral toxicity (mortality) in the mouse, Table 1. Conditions: mouse, in vivo, po, Swiss mice, 14 days. Format: in vivo. Here is the method: as §4, §5
In data set [3] the test system is salivation induced by pilocarpine. Nature of the data set: Inhibition of salivation induced by pilocarpine (anticholinergic activity), Table 9. Format: in vivo. As to conditions: oral.
Excerpt: as §1
Certain products manifest an anticholinergic activity evidenced in the inhibition test of salivation induced by pilocarpine (Table 9).
% of inhibition of salivation induced by
pilocarpine as a function of the dose
as §3

The subject of data set [4] is number of escapes the animal made in 5 minutes. The experiment in a line: Escape test, Table 3. As to conditions: 5 min, read-out: % of activity (variation of the number of escapes). It counts as in vivo, mouse. The text has this: The products of the invention were always administered orally in 6% gum base.
The notation NS signifies that the difference between the results noted for the product and the results noted for the excipient alone is not significant at the threshold 0.05 according to the Student t Test.

The test system of the next data set is despair. Nature of the data set: Test of despair (Porsolt), Table 8. It counts as in vivo. Conditions: oral.
Excerpt: as §1, §2
Test of despair: % of antagonism as a function
of the dose administered orally and expressed

Data set [5] deals with number of displacements of the animal. The experiment in a line: Four plates test (anxiolytic activity), Table 5. Conditions: oral, mouse. Format: in vivo.
Excerpt: as §1
A certain number of products manifest an anxiolytic activity evidenced in the test with the four plates with the mouse (Table 5).
% of increase in the number of displacements of the
animal as a function of the dose expressed in mg/kg

Data set [6] concerns ptosis induced by reserpine. Nature of the data set: Antagonism of ptosis induced by reserpine, Table 6. As to conditions: read-out: % of inhibition of ptosis induced by reserpine. Format: in vivo.
Excerpt: as §1, §2
% of inhibition of ptosis induced by reserpine
as a function of the dose administered orally

For data set [7], the system named is stereotype induced by apomorphine. The experiment in a line: Antagonism of the stereotype induced by apomorphine, Table 4. Format: in vivo. As to conditions: for % of activity vis-a-vis the stereotype induced by apomorphine: oral.
Excerpt: as §1
% of activity vis-a-vis the stereotype
induced by apomorphine as a function of the
administered dose expressed in mg/kg

[8] abbreviates: 100 mg/kg, oral, mouse, 5 minutes.
The mark [9] stands for this setting: 200 mg/kg, oral, mouse, 5 minutes.
The mark [10] stands for this setting: read-out: % of analgesic activity, 50 mg/kg, male Swiss mouse, PBQ.

As to `CN(C)CCc1cc2c(cc1N=Cc1cccnc1)OCO2` [COR 01 170, 6-dimethylaminoethyl N-(pyridylidene-3)-1,3-benzodioxole-5-ylamine], the inhibition in vivo at 100 mg/kg in the data set on phenylbenzoquinone (PBQ) was 30%. Also, the inhibition in vivo at 200 mg/kg with phenylbenzoquinone (PBQ) turned out to be 39%. Also, in data set [1] (po), the change in vivo at 50 mg/kg was -40%. Moreover, the change in vivo at 100 mg/kg in [1] (po) was -50%; in data set [4] (Mus musculus, po), -32%. Moreover, the change in vivo at 200 mg/kg in data set [1] (po) was -78%; in [4] (Mus musculus, po) it was -59%. For the same compound, the “% of mortality” value in the data set with Swiss mice (1000 mg/kg) stood at 0%. This compound registered a mortality at 336 h in data set [2] (1500 mg/kg) of 100%. Moreover, the figures for the “% of inhibition of salivation induced by pilocarpine” value (from here on “% of inhibition … by pilocarpine”) in data set [3] (100 mg/kg) and in [3] (200 mg/kg) were -18% and -57%, respectively. Further, the “Test of despair: % of antagonism” value is recorded as -39% with despair (50 mg/kg), -39% in the data set with despair (100 mg/kg) and -33% in the data set with despair (200 mg/kg). The “% of increase in the number of displacements of the animal” value (“% of increase” below) is given as “+18%” in data set [5] (25 mg/kg); “+57%” in data set [5] (40 mg/kg); “+36%” in data set [5] (50 mg/kg); “+69%” in data set [5] (60 mg/kg); “+72%” in data set [5] (75 mg/kg).
In the case of `C(=Nc1cc2c(cc1CCN1CCCC1)OCO2)c1cccnc1` [COR 01 173], the change in vivo at 50 mg/kg is -12% in [6] (50 mg/kg, oral); -20% in [1] (50 mg/kg, oral); -29% in [4] (oral, mouse, 5 minutes). For the same compound, the change in vivo at 75 mg/kg in [6] (75 mg/kg, oral) is -21%; in data set [1] (oral) it was -40%; in data set [4] (75 mg/kg, oral, mouse, 5 minutes) it was -26%. The change in vivo at 100 mg/kg was -23% in [6] (100 mg/kg, oral); -60% in [1] (100 mg/kg, oral); -50% in [4] (setting [8]). Also, the change in vivo at 25 mg/kg in data set [1] (25 mg/kg, oral) is -20%; in data set [4] (oral, mouse, 5 minutes), -13%. Also, the change in vivo at 150 mg/kg was -70% in data set [1] (150 mg/kg, oral) and -55% in [4] (150 mg/kg, oral, mouse, 5 minutes). Further, the mortality at 336 h in data set [2] (500 mg/kg) came to 0%; in data set [2] (1000 mg/kg) it was 30%. The “% of inhibition … by pilocarpine” value was -39% in data set [3] (75 mg/kg), -48% in data set [3] (100 mg/kg) and -76% in data set [3] (200 mg/kg). Also, the change in vivo at 5 mg/kg in data set [4] (oral, mouse, 5 minutes) was -33%. Besides, in [4] (setting [9]), the change in vivo at 200 mg/kg was -90%. Also, the “Test of despair: % of antagonism” value is -18% in the data set with despair (50 mg/kg), -41% with despair (100 mg/kg) and -53% in the data set on despair (200 mg/kg). The “% of increase” value is given as “+30%” in [5] (10 mg/kg), “+47%” in data set [5] (20 mg/kg), “+60%” in data set [5] (50 mg/kg) and “+82%” in [5] (75 mg/kg).
For `CN(C)CCc1ccccc1N=Cc1cccnc1` [COR 01 184], the change in vivo at 50 mg/kg in data set [6] (po) was -13%; in data set [1] (po), 0%; in [4] (oral, mouse, 5 minutes), -34%. Further, the change in vivo at 100 mg/kg in data set [6] (po) was -39%; in data set [1] (po), -22%; in [4] (setting [8]), -47%. Also, the change in vivo at 200 mg/kg in data set [6] (po) was -34%; in data set [1] (po), -17%; in [4] (setting [9]) it was -46%. Also, the inhibition in vivo at 50 mg/kg with phenylbenzoquinone (PBQ) (setting [10]) was 34%. For the same compound, the inhibition in vivo at 100 mg/kg with phenylbenzoquinone (PBQ) was 44%. Besides, the inhibition in vivo at 200 mg/kg in the data set on phenylbenzoquinone (PBQ) came out at 55%. Besides, the change in vivo at 25 mg/kg in data set [1] (po) is -20%; in data set [4] (oral, mouse, 5 minutes) it was -23%. In addition, the mortality at 336 h in data set [2] (1500 mg/kg) amounted to 0%; in data set [2] (2000 mg/kg), 30%. Further, in data set [3] (200 mg/kg), the “% of inhibition … by pilocarpine” value is -23%. Further, the change in vivo at 5 mg/kg in data set [4] (oral, mouse, 5 minutes) is -34%. In addition, the change in vivo at 10 mg/kg in data set [4] (10 mg/kg, oral, mouse, 5 minutes) is -26%. For the same compound, the figures for the “Test of despair: % of antagonism” value in the data set on despair (100 mg/kg) and in the data set with despair (200 mg/kg) were -20% and -18%, respectively. Besides, the “% of increase” value is given as “+89%” in [5] (1.5 mg/kg), “+73%” in data set [5] (3 mg/kg), “+56%” in data set [5] (5 mg/kg) and “+61%” in data set [5] (10 mg/kg).
Consider `C(=Nc1cc2c(cc1CCN1CCCCC1)OCO2)c1cccnc1` [COR 01 202], for which the “% of analgesic activity” value is recorded as 0% in the data set on phenylbenzoquinone (PBQ) (100 mg/kg, male Swiss mouse, PBQ) and 33% in the data set with phenylbenzoquinone (PBQ) (200 mg/kg, male Swiss mouse, PBQ). Also, in the data set on phenylbenzoquinone (PBQ) (50 mg/kg, male Swiss mouse, PBQ, read-out: % of analgesic activity), the inhibition in vivo at 50 mg/kg amounted to 2%. Besides, the “% of activity vis-a-vis the stereotype induced by apomorphine” value in data set [7] (25 mg/kg) is listed as -35%; in data set [7] (50 mg/kg), -32%; in data set [7] (75 mg/kg) it was -29%; in [7] (200 mg/kg) it was -20%. For the same compound, in data set [7] (in words), the “antagonism vis-a-vis the stereotype with apomorphine” value is “manifest an antagonism”. Further, in data set [1] (25 mg/kg, oral), the change in vivo at 25 mg/kg turned out to be 0%. Besides, the change in vivo at 50 mg/kg in data set [1] (50 mg/kg, oral) was -67%. Further, the change in vivo at 75 mg/kg in [1] (oral) is -44%. For the same compound, the “% of mortality” value is on record as 10% in the data set with Swiss mice (500 mg/kg) and 60% in the data set with Swiss mice (1000 mg/kg). The same compound had a mortality at 336 h in data set [2] (750 mg/kg) of 30%. The “Test of despair: % of antagonism” value was -49% with despair (50 mg/kg) and -67% with despair (100 mg/kg). For the same compound, the “% of increase” value in [5] (25 mg/kg) is reported as “+48%”; in [5] (50 mg/kg), “+96%”.
Consider `CN(C)CCc1cc2c(cc1N=Cc1ccc[n+]([O-])c1)OCO2` [COR 01 203], for which the change in vivo at 100 mg/kg is -33% in [6] (po) and -50% in [1] (po). Also, the values for the change in vivo at 200 mg/kg in [6] (po) and in data set [1] (po) were -27% and -20%, respectively. The inhibition in vivo at 50 mg/kg in the data set with phenylbenzoquinone (PBQ) (setting [10]) turned out to be 0%. In the data set on phenylbenzoquinone (PBQ), the inhibition in vivo at 100 mg/kg was 36%. In addition, in the data set with phenylbenzoquinone (PBQ), the inhibition in vivo at 200 mg/kg turned out to be 47%. Besides, the change in vivo at 50 mg/kg in [1] (po) is -70%. The figures for the mortality at 336 h in [2] (1000 mg/kg), in data set [2] (1500 mg/kg) and in data set [2] (2000 mg/kg) were 0%, 10% and 40%, respectively. Moreover, the entries for the “% of inhibition … by pilocarpine” value in data set [3] (50 mg/kg) and in data set [3] (200 mg/kg) were -32% and -30%, respectively.

The values are drawn from patent US4333930A, “Orthoarylideneaminophenethylamines and pharmaceutical compositions” (priority 1980, dated 1982).
